In paper PMC12227055 (Science Advances, 2025):

Columns and labels:
[1] = target: T1, CryoR1 (Cryobacterium levicorallinum, UniProt A0A1I3DJQ0); assay: cryo-EM structure (light-accumulated M2 state), […] A; format: binding; conditions: covalent deprotonated Schiff base (K241); photoproduct formed in situ from all-trans-retinal; pH 10.5; 530/532 nm illumination
T1 construct: gene E3O11_09160
T1 sequence (A0A1I3DJQ0 3-327): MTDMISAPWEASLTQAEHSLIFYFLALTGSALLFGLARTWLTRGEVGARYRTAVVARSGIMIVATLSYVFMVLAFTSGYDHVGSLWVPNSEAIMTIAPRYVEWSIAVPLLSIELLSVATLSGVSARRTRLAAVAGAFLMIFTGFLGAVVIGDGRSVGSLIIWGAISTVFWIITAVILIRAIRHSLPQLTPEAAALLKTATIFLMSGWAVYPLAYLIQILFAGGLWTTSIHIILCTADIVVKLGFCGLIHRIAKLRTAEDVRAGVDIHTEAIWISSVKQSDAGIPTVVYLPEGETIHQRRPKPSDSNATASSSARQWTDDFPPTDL

[2] = target: CryoRhodopsin 1 (CryoR1) from Cryobacterium levicorallinum, wild type (Cryobacterium levicorallinum); assay: SEC
[3] = target: CryoRhodopsin 1 (CryoR1) from Cryobacterium levicorallinum, wild type (Cryobacterium levicorallinum); assay: cryo-EM structure
[4] = target: CryoRhodopsin 1 (CryoR1) from Cryobacterium levicorallinum, wild type (Cryobacterium levicorallinum); assay: cryo-EM structure; remark: listed apart in the source
[5] = target: CryoRhodopsin 2 (CryoR2) from Subtercola sp. AK-R2A1-2 (Subtercola sp. AK-R2A1-2); assay: cryo-EM structure
[6] = target: CryoRhodopsin 2 (CryoR2) from Subtercola sp. AK-R2A1-2 (Subtercola sp. AK-R2A1-2); assay: crystal structure
[7] = target: T1, CryoR1; assay: cryo-EM structure (ground state); format: binding; conditions: covalent Schiff base (K241); pH 4.3, 8.0 and 10.5; detergent micelles or nanodisc
[8] = target: T2, CryoR1_1–263 (Cryobacterium levicorallinum, UniProt A0A1I3DJQ0); assay: UV-Vis absorption and flash photolysis of purified holoprotein; format: binding; conditions: covalent Schiff base; detergent; pH 8.0
T2 construct: gene E3O11_09160
T2 sequence (A0A1I3DJQ0 3-265): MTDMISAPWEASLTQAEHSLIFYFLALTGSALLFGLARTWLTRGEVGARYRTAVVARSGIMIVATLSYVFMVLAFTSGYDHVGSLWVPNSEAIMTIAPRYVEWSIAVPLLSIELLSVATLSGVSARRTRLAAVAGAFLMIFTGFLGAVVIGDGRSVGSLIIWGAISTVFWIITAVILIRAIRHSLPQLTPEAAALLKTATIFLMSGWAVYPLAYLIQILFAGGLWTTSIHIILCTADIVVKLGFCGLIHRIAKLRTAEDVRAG

[9] = target: T3, CryoR3 (Cryobacterium frigoriphilum, UniProt A0A4R8ZY77); assay: as above; format: binding; conditions: covalent Schiff base; detergent; pH 8.0
T3 construct: gene E3T55_12175
T3 sequence (A0A4R8ZY77 42-365): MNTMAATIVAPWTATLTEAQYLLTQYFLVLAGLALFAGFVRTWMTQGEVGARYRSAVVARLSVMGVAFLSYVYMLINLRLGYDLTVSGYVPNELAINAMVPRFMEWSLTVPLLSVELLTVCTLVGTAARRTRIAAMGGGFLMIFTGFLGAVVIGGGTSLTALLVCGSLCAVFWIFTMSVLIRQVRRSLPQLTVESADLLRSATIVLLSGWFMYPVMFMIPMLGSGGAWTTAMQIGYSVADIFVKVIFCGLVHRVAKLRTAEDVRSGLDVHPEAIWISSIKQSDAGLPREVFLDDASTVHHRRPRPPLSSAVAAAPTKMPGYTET

[10] = target: T4, CryoR1 (Cryobacterium levicorallinum, UniProt A0A1I3DJQ0, R59T); assay: as above; format: binding; conditions: covalent Schiff base (K241); detergent; pH 8.0 and 10.5
T4 construct: gene E3O11_09160
T4 sequence (A0A1I3DJQ0 entry or part of it R59T): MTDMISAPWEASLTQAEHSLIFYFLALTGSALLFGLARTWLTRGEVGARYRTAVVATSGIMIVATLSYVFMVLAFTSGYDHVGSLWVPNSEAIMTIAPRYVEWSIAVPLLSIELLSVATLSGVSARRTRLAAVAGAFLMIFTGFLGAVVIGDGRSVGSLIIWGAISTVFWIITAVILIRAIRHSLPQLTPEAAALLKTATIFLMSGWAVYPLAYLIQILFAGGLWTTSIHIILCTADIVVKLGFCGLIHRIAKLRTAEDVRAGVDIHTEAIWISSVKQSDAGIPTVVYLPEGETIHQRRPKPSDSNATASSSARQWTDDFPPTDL

[11] = target: T5, CryoR5 (Subtercola boreus, UniProt A0A3E0VLV3); assay: as above; format: binding; conditions: covalent Schiff base; detergent; pH 8.0
T5 construct: gene B7R54_12135
T5 sequence (A0A3E0VLV3 1-318): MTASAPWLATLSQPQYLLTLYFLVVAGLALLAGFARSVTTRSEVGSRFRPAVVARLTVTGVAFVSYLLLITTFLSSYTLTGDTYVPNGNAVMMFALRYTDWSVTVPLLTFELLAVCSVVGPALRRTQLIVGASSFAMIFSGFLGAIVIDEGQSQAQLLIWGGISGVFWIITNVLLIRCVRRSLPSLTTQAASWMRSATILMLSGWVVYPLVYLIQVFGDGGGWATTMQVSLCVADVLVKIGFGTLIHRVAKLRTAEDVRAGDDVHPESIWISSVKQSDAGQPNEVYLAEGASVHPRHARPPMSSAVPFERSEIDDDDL

[12] = target: T6, CryoR4 (Subtercola vilae, UniProt A0A4T2CD69); assay: as above; format: binding; conditions: covalent Schiff base; detergent; pH 8.0
T6 construct: gene D4765_01930
T6 sequence (A0A4T2CD69 1-317): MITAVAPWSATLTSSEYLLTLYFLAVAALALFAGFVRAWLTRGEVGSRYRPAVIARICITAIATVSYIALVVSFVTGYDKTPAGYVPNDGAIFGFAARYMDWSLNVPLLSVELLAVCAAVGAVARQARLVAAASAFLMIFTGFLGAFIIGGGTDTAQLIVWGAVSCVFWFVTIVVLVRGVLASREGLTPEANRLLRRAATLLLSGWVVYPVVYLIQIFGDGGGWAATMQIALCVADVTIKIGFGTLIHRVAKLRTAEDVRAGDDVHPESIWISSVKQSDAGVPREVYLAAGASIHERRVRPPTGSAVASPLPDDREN

## CC1=C(/C=C/C(C)=C/C=C/C(C)=C\C=O)C(C)(C)CCC1 [13-cis retinal]
[1]
  cryo-EM structure (light-accumulated M2 state), 2.3 A: strongly suggests the 13-cis conformation of the cofactor in the M2 state

## CryoRhodopsin 1 (CryoR1) from Cryobacterium levicorallinum, wild type (natural protein)
[2]
  stoichiometry N: 5
[3]
  stoichiometry N: 5
[4]
  stoichiometry N: 5

## CryoRhodopsin 2 (CryoR2) from Subtercola sp. AK-R2A1-2 (natural protein)
[5]
  stoichiometry N: 5
[6]
  stoichiometry N: 5

## CC1=C(/C=C/C(C)=C/C=C/C(C)=C/C=O)C(C)(C)CCC1 [all-trans-retinal]
[7]
  cryo-EM structure (ground state): presence of a single state, which we assigned to the ground state
[8]
  UV-Vis absorption and flash photolysis of purified holoprotein: spectral properties of the truncated variant of CryoR1
[9]
  UV-Vis absorption and flash photolysis of purified holoprotein: CryoR1-5 differ in their UV–visible (Vis) absorption spectra
[10]
  UV-Vis absorption and flash photolysis of purified holoprotein: we studied the spectroscopic properties of the R57T mutant of CryoR1
[11]
  UV-Vis absorption and flash photolysis of purified holoprotein: CryoR1-5 differ in their UV–visible (Vis) absorption spectra
[12]
  UV-Vis absorption and flash photolysis of purified holoprotein: CryoR1-5 differ in their UV–visible (Vis) absorption spectra
